Measured values taken from US20050164929A1, “Methods of preventing and treating inflammatory bowel disease” (LUPINE LOGIC, INC., priority 2000, published 2005).

Experiments:
[1] = tested on: endothelial cells; assay: Proliferation summary for variants; format: cell-based; conditions: in vitro
Method: (§1) Experiments were performed to evaluate the proliferative response of representative cell types to CG53135, e.g., a full-length tagged variant (CG53135-01), a deletion variant (CG53135-02), and a full-length codon-optimized untagged variant (CG53135-05).
(§2) CG53135-02 (batch 1 and 13) was also used in these experiments. Protein was expressed in E. coli, BLR (DE3) (Novagen), transformed with the deletion variant CG53135-02 inserted into a pET24a vector (Novagen). A research cell bank (RCB) was produced and cell paste containing CG53135-02 was produced by fermentation of cells originating from the RCB. Cell membranes were disrupted by high-pressure homogenization, and lysate was clarified by centrifugation. CG53135-02 was purified by ion exchange chromatography. The final protein fraction was dialyzed against the formulation buffer (100 mM citrate, 1 mM ethylenediaminetetraacetic acid (EDTA), and 1 M L-arginine).
(§3) CG53135-05, DEV10, which were also used in these experiments, was prepared by Cambrex Biosciences (Hopkinton, Mass.) according to Process 1 as described in Section 6.18.1, infra.
(§4) BrdU Incorporation: proliferative activity was measured by treatment of serum-starved cultured cells with a given agent and measurement of BrdU incorporation during DNA synthesis. Cells were cultured in respective manufacturer recommended basal growth medium supplemented with 10% fetal bovine serum or 10% calf serum as per manufacturer recommendations. Cells were grown in 96-well plates to confluence at 37° C. in 10% CO2/air (to subconfluence at 5% CO2 for dedifferentiated chondrocytes and NHOst). Cells were then starved in respective basal growth medium for 24-72 hours. CG53135 protein purified from E. coli or pCEP4/Sec or pCEP4/Sec-FGF 20× enriched conditioned medium was added (10 μL/100 μL of culture) for 18 hours. BrdU (10 μM final concentration) was then added and incubated with the cells for 5 hours. BrdU incorporation was assayed according to the manufacturer's specifications (Roche Molecular Biochemicals, Indianapolis, Ind.).
(§5) The above described experiments were also performed using CG53135-02 and CG53135-05 protein products, and the results are summarized in the Conclusion section below.

[2] = tested on: mesenchymal and epithelial cells; assay: Proliferation summary for variants; format: cell-based; conditions: in vitro
Method: as §1, §2, §3, §4, §5

[3] = tested on: DSS-induced ulcerative colitis in female Swiss Webster mice; assay: Chronic 2 week DSS-induced ulcerative colitis (N-404); format: in vivo, mouse
Method: Colitis was induced in female Swiss Webster mice by exposure to 3% DSS in the drinking water (ad libitum) on study Days 1-5 and maintained by exposure to 1% DSS in the drinking water (ad libitum) on study Days 6-15. Mice were randomly assigned to 4 groups of 15 animals (Table X). Mice were exposed to 3% DSS in drinking water on test Days 1 through 5 and 1% DSS on test Days 6-15, with concurrent intraperitoneal (IP) treatments of vehicle or CG53135-05 at 0.33, 1.67 and 3.33 mg/kg (UV) Days 6-14 after disease was established. Mice were weighed daily. On Day 15 animals were terminated by cervical dislocation, the colon length was measured, and colon content was scored. Tissues were collected into 10% neutral buffered formalin and processed routinely for histopathology.
Clinical Parameters and Gross Pathology: Only animals that survived the duration of the study were included in the analysis of body weight change, terminal colon lengths, and colon content scores. At necropsy, the colon length was measured and assessed for evidence of stool consistency changes. Colon content was scored at necropsy according to the following criteria: 0=Normal (firm, well formed stool); 1=Semi-solid stool; 2=Semi-solid to fluid stool; and 3=Semi-solid with definite evidence of blood, bloody fluid or no content.
Histopathology: At necropsy, the colon was harvested and divided into 2 approximately equal segments, proximal and distal, to assess regional changes induced in this model. Distal ends were marked to maintain orientation. These colon segments were collected, preserved in 10% neutral buffered formalin, and routinely processed for histopathologic evaluation. During processing for histology, the proximal and distal colon segments were each trimmed to obtain 4 equally spaced segments, and hematoxylin and eosin (H&E) stained slides were prepared for each. Both proximal and distal tissues were examined as these tissues are affected to different degrees of severity in this model (more severe and less variable symptoms predominate in the distal colon).
For each colon section, submucosal edema was quantified by measuring the distance (mm) from the muscularis mucosa to the internal border of the outer muscle layer. The extent of inflammation (foamy macrophages, lymphocytes and polymorphonuclear cell infiltrate) was assigned severity scores according to the following ranking: 0=Normal; 1=Minimal; 2=Mild; 3=Moderate; 4=Marked; and 5=Severe.
The parameters reflecting epithelial cell loss/damage were scored individually using a percent area involved scoring method. Parameters that were scored using the percent involvement scale included colon glandular loss and colon erosion. • 0=None • 1=1-10% of the mucosa affected • 2=11-25% of the mucosa affected • 3=26-50% of the mucosa affected • 4=51-75% of the mucosa affected • 5=76-100% of the mucosa affected
Mucosal epithelial hyperplasia (basophilia, mitotic figures, multilayered on basement membranes, absence of goblet cells) was scored 0-5 based on the following criteria • 0=Normal • 1=Minimal-small foci generally adjacent to the inflammatory changes • 2=Mild-11-25% of mucosa affected • 3=Moderate-26-50% of mucosa affected • 4=Marked-[…] of mucosa affected • 5=Severe-51-100% of mucosa affected plus papillary proliferation into lumen
Mucosal thickness (an indicator of proliferative changes or edematous inflammatory mucosal expansion) was measured by placing an ocular micrometer at the base of the glands and the overlying surface epithelium in a non-tangential area of section representative of the thickest areas of mucosa.
The scores for proximal tissues and distal colon were averaged to determine a score for the entire colon for each parameter evaluated. […]

[4] = tested on: chronic DSS-induced ulcerative colitis in female Swiss Webster mice; assay: Chronic DSS colitis, every other day dosing (N-405); format: in vivo, mouse; conditions: 3.33 mg/kg (UV) IP on Days 6, 8, 10, 12, 14 (q2d)
[5] = tested on: NIH 3T3 murine embryonic fibroblast cells; assay: BrdU incorporation bioassay of RP-HPLC peak fractions; format: cell-based, mouse; conditions: BrdU incorporation
Method: The biological activity of CG53135-05 related species collected from the 4 peaks identified by LC and MS was measured by treatment of serum-starved cultured NIH 3T3 murine embryonic fibroblast cells with various doses of the isolated CG53135-05 related species and measurement of incorporation of bromodeoxyuridine (BrdU) during DNA synthesis. For this assay, cells were cultured in Dulbecco's modified Eagle's medium supplemented with 10% fetal bovine serum. Cells were grown in 96-well plates to confluence at 37° C. in 10% CO2/air and then starved in Dulbecco's modified Eagle's medium for 24-72 hours. CG53135-05-related species were added and incubated for 18 hours at 37° C. in 10% CO2/air. BrdU ([…]) was added and incubated with the cells for 2 hours at 37° C. in 10% CO2/air. Incorporation of BrdU was measured by enzyme-linked immunosorbent assay according to the manufacturer's specifications (Roche Molecular Biochemicals, Indianapolis, Ind.).
Peak 4 was not included in this assay since insufficient material was collected (Peak 4 is less than 3% of the total peak area for CG53135-05).

[6] = 3.33 mg/kg (UV), non-significant

## CG53135-05: Codon optimized, full length FGF-20, untagged; SEQ ID NOs 8 and 2
[1]
  proliferation of endothelial cells: not
[2]
  proliferation of mesenchymal and epithelial cells: induce proliferation
[3]; 0.33 mg/kg (UV) IP once daily Days 6-14
  reduction in weight loss: 19%
[3]; 1.67 mg/kg (UV) IP once daily Days 6-14
  reduction in weight loss: 35%
[3]; 3.33 mg/kg (UV)
  improvement in "on" inflammation: 35%
  improvement in distal gland loss: 38%
  improvement in distal summed histopathologic scores: 38%
  improvement in total gland loss: 37%
  improvement in total inflammation: 34%
  improvement in total summed histopathologic scores: 37%
[3]; 3.33 mg/kg (UV) IP once daily Days 6-14
  reduction in weight loss: 67%
[3]; [6]
  improvement in the hyperplasia score: 31%
  inhibition of the total mucosal thickness: 39%
[3]; 3.33 mg/kg (UV), statistically significant
  colon length, inhibition of decrease: 29%
[3]; 1.67 or 3.33 mg/kg (UV)
  improvement of colon scores: 21-29%
[3]; mid and high dose groups, non-significant
  inhibition of proximal, distal and total colon erosion: 46-62%
[4]
  severity of chronic DSS-induced ulcerative colitis: significantly reduced the severity
[5]
  induction of DNA synthesis / activity in proliferation assays: dose-dependent manner
